Reference: US8084399B2, “Process for screening of a binding amphiphilic peptides specific for hairpin RNA” (priority 2009, dated 2011)
“And” between values parts separate entries of the source, which are not always exact repeats. Identical values can stand only once. Where no end group is shown, it is not given here. [ ]: non-standard residue; d: D form. Orn = NCCC[C@H](N)C(=O)O; Dab = NCC[C@H](N)C(=O)O; Dap = NC[C@H](N)C(=O)O

Experiments:
[1] = molecular target: RRE hairpin RNA; test: Fluorescence anisotropy competition with Rev-N-rhodamine probe, binding to RRE hairpin RNA; parameters: species or system HIV; conditions: 20° C., pH 7.4, read-out: Dissociation constant, RRE
Protocol: (§1) Binding force to each target hairpin RNA (IRES, RRE, TAR and 16S A-site) was measured by fluorescence polarization using alanine scanned peptide library (1b-1h).
(§2) Particularly, […] of each target RNA was prepared at the concentration of 10 mM, which stood at 65° C. for 10 minutes and then cooled down slowly at room temperature, leading to folding. The amphiphilic peptide was prepared respectively at the concentration of […], which were maintained at 0° C. As a probe, rev peptide labeled with rhodamine (Rev-N-rhodamine) emitting […] fluorescence was prepared at the concentration of 10 mM. Buffer was composed of 140 mM NaCl, 5 mM KCl, 1 mM MgCl2, and 20 mM HEPES (N-2-Hydroxyethylpiperazine-N′-2-Ethanesulfonic Acid, pH 7.4). Fluorescence Anisotropy was measured using AMINCO-Bowman Series Luminescence Spectrometer at 20° C. Ten nM of the probe was added in […] of buffer, to which target RNA was added to induce interaction between the probe and the target RNA. At that time, anisotropy value increased. Then, the synthesized peptide competing with the probe for binding site was added thereto with increasing the concentration slowly. Changes of fluorescence polarization were measured until fluorescence polarization reached as low as the beginning. Considering the concentration and amount of the peptide added, binding force to target RNA was calculated. That is, the binding strength between target RNA and peptide was determined according to the following KaleidaGraph. [Peptide]=Kd(Amax−A)/[Kd(A−A0)+1]×[RNA]−Kd(A−A0)^2[Probe]0/(Amax−A)(Amax−A0)
(§3) Herein, [Peptide] indicates the concentration of peptide, [RNA] indicates the concentration of target RNA, and [Probe]0 indicates the concentration of probe. A is the value of fluorescence anisotropy of sample, Amax is the value of totally bound tracer, and A0 is the value of totally free tracer.

[2] = molecular target: TAR hairpin RNA; test: Fluorescence anisotropy competition with Rev-N-rhodamine probe, binding to TAR hairpin RNA; parameters: species or system HIV; conditions: for Kd: fluorescence anisotropy, 20° C., pH 7.4, read-out: Dissociation constant, TAR
Protocol: as §1, §2, §3

[3] = molecular target: 16S ribosomal RNA A-site; test: Fluorescence anisotropy competition with Rev-N-rhodamine probe, binding to 16S A-site; conditions: 20° C., pH 7.4, read-out: Dissociation constant, 16S A-site
Protocol: as §1, §2, §3

[4] = tested on: IRES domain IV hairpin; test: Fluorescence anisotropy competition with Rev-N-rhodamine probe, binding to IRES hairpin; parameters: species or system HCV; conditions: for differentiation coefficient (IRES): (mean Kd to other hairpin RNA)/(Kd to one hairpin RNA); for Kd: fluorescence anisotropy, 20° C., pH 7.4, read-out: Dissociation constant, IRES
Protocol: as §1, §2, §3

[5] = Circular dichroism (CD), percentage of alpha-helix; assay type: physicochemical; conditions: CD at 20° C., condition not given; for Alpha-helical rate (%), second value of pair: value after the slash; for Alpha-helical rate (%), first value of pair: value before the slash
Protocol: To investigate alpha-helix of the amphiphilic peptide (1a-1h), circular dichroism (CD) was performed. Particularly, CD was measured at 20° C. by using JASCO model J715 spectropolarimeter. Scanning was performed at 190-250 nm three times (bandwidth: 1 nm, datapitch: 0.5 nm, speed: 100 nm/min), which were averaged to obtain CD data. Spectrum was corrected by measuring background spectrum. CD signal was recorded after modulating thereof with mean residue ellipticity [Q]. Percentage (%) of alpha-helix(fn) was calculated by the following formula. [Q]=Qobs[MRW/(10lc)]
MRW=mean residue weight (dividing molecular weight by the number of peptide bond, l=pathway length (cm), c=concentration (mg/mL). fn=([Q]222−[Q]coil)/([Q]helix−[Q]coil) [Q]helix=−40,000[…]+100t [Q]coil=640−45t
[Q]222=mean residue ellipticity at 222 nm (deg cm2 mol-1), [Q]helix=ellipticity of peptide having complete helical structure, [Q]coil=ellipticity of peptide having complete random coil structure, n=number of amino acid, t=° C.

[6] = compared with the original peptide

Row | Substance | Kd [1] | Kd [2] | Kd [3] | differentiation coefficient (IRES) [4] | Kd [4] | Alpha-helical rate (%), second value of pair [5] | Alpha-helical rate (%), first value of pair [5] | binding strength to TAR, in words [2, 6] | binding strength to IRES, in words [4, 6]
1 | LKKLLKWLKKLLDapLAG (LKKLLKWLKKLL[Dap]LAG-NH2; N-terminus assumed; SMILES CC(C)C[C@H](NC(=O)[C@H](CN)NC(=O)[C@H](CC(C)C)NC(=O)[C@H](CC(C)C)NC(=O)[C@H](CCCCN)NC(=O)[C@H](CCCCN)NC(=O)[C@H](CC(C)C)NC(=O)[C@H](Cc1c[nH]c2ccccc12)NC(=O)[C@H](CCCCN)NC(=O)[C@H](CC(C)C)NC(=O)[C@H](CC(C)C)NC(=O)[C@H](CCCCN)NC(=O)[C@H](CCCCN)NC(=O)[C@@H](N)CC(C)C)C(=O)N[C@@H](C)C(=O)NCC(N)=O) [3c, third generation peptide, both faces modified] | 0.0097 µM | 0.0083 µM | 0.021 µM | 17 | 0.00075 µM | 36% | 29% | – | –
2 | LKKLLKLLKKLLOrnLAG (LKKLLKLLKKLL[Orn]LAG-NH2; N-terminus assumed; SMILES CC(C)C[C@H](NC(=O)[C@H](CCCN)NC(=O)[C@H](CC(C)C)NC(=O)[C@H](CC(C)C)NC(=O)[C@H](CCCCN)NC(=O)[C@H](CCCCN)NC(=O)[C@H](CC(C)C)NC(=O)[C@H](CC(C)C)NC(=O)[C@H](CCCCN)NC(=O)[C@H](CC(C)C)NC(=O)[C@H](CC(C)C)NC(=O)[C@H](CCCCN)NC(=O)[C@H](CCCCN)NC(=O)[C@@H](N)CC(C)C)C(=O)N[C@@H](C)C(=O)NCC(N)=O) [2g, second generation peptide, hydrophilic face modified] | 0.011 µM | 0.009 µM | 0.023 µM | 3.3 | 0.0044 µM | 53% | 36% | – | –
3 | LKKLLDabLLKKLLKLAG (LKKLL[Dab]LLKKLLKLAG-NH2; N-terminus assumed; SMILES CC(C)C[C@H](NC(=O)[C@H](CCCCN)NC(=O)[C@H](CC(C)C)NC(=O)[C@H](CC(C)C)NC(=O)[C@H](CCCCN)NC(=O)[C@H](CCCCN)NC(=O)[C@H](CC(C)C)NC(=O)[C@H](CC(C)C)NC(=O)[C@H](CCN)NC(=O)[C@H](CC(C)C)NC(=O)[C@H](CC(C)C)NC(=O)[C@H](CCCCN)NC(=O)[C@H](CCCCN)NC(=O)[C@@H](N)CC(C)C)C(=O)N[C@@H](C)C(=O)NCC(N)=O) [2b, second generation peptide, hydrophilic face modified] | 0.01 µM | 0.0073 µM | 0.013 µM | 6.4 | 0.0016 µM | 63% | 23% | – | –
4 | LKKLLDabLLOrnKLLKLAG (LKKLL[Dab]LL[Orn]KLLKLAG-NH2; N-terminus assumed; SMILES CC(C)C[C@H](NC(=O)[C@H](CCCCN)NC(=O)[C@H](CC(C)C)NC(=O)[C@H](CC(C)C)NC(=O)[C@H](CCCCN)NC(=O)[C@H](CCCN)NC(=O)[C@H](CC(C)C)NC(=O)[C@H](CC(C)C)NC(=O)[C@H](CCN)NC(=O)[C@H](CC(C)C)NC(=O)[C@H](CC(C)C)NC(=O)[C@H](CCCCN)NC(=O)[C@H](CCCCN)NC(=O)[C@@H](N)CC(C)C)C(=O)N[C@@H](C)C(=O)NCC(N)=O) [2j, second generation peptide, hydrophilic face modified] | 0.021 µM | 0.01 µM | 0.014 µM | 6.3 | 0.0024 µM | 57% | 49% | – | –
5 | LKKLLKLLOrnKLLDapLAG (LKKLLKLL[Orn]KLL[Dap]LAG-NH2; N-terminus assumed; SMILES CC(C)C[C@H](NC(=O)[C@H](CN)NC(=O)[C@H](CC(C)C)NC(=O)[C@H](CC(C)C)NC(=O)[C@H](CCCCN)NC(=O)[C@H](CCCN)NC(=O)[C@H](CC(C)C)NC(=O)[C@H](CC(C)C)NC(=O)[C@H](CCCCN)NC(=O)[C@H](CC(C)C)NC(=O)[C@H](CC(C)C)NC(=O)[C@H](CCCCN)NC(=O)[C@H](CCCCN)NC(=O)[C@@H](N)CC(C)C)C(=O)N[C@@H](C)C(=O)NCC(N)=O) [peptide 2k, second generation peptide, hydrophilic face modified] | 0.02 µM | 0.013 µM | 0.017 µM | 24 and 25 | 0.00068 µM | 61% | 48% | – | –
6 | LKKLLDabLLOrnKLLDapLAG (LKKLL[Dab]LL[Orn]KLL[Dap]LAG-NH2; N-terminus assumed; SMILES CC(C)C[C@H](NC(=O)[C@H](CN)NC(=O)[C@H](CC(C)C)NC(=O)[C@H](CC(C)C)NC(=O)[C@H](CCCCN)NC(=O)[C@H](CCCN)NC(=O)[C@H](CC(C)C)NC(=O)[C@H](CC(C)C)NC(=O)[C@H](CCN)NC(=O)[C@H](CC(C)C)NC(=O)[C@H](CC(C)C)NC(=O)[C@H](CCCCN)NC(=O)[C@H](CCCCN)NC(=O)[C@@H](N)CC(C)C)C(=O)N[C@@H](C)C(=O)NCC(N)=O) [2m, second generation peptide, hydrophilic face modified] | 0.019 µM | 0.031 µM | 0.013 µM | 4.9 | 0.0043 µM | 69% | 49% | – | –
7 | LKKLLALLKKLLKLKG [peptide 1d, alanine scanned first generation peptide] | 0.15 µM | 0.15 µM | 0.16 µM | 1.0 | 0.15 µM | 47% | 12% | three fold binding strength | reduced binding strength
8 | LKKLLKLLKKLLKLKG [1a, original amphiphilic 16-mer peptide] | 0.022 µM | 0.066 µM | 0.1 µM | 1.4 | 0.045 µM | 57% | 26% | – | –
9 | LKKLLKLLDapKLLKLAG (LKKLLKLL[Dap]KLLKLAG-NH2; N-terminus assumed; SMILES CC(C)C[C@H](NC(=O)[C@H](CCCCN)NC(=O)[C@H](CC(C)C)NC(=O)[C@H](CC(C)C)NC(=O)[C@H](CCCCN)NC(=O)[C@H](CN)NC(=O)[C@H](CC(C)C)NC(=O)[C@H](CC(C)C)NC(=O)[C@H](CCCCN)NC(=O)[C@H](CC(C)C)NC(=O)[C@H](CC(C)C)NC(=O)[C@H](CCCCN)NC(=O)[C@H](CCCCN)NC(=O)[C@@H](N)CC(C)C)C(=O)N[C@@H](C)C(=O)NCC(N)=O) [2f, second generation peptide, hydrophilic face modified] | 0.01 µM | 0.011 µM | 0.015 µM | 0.6 | 0.02 µM | 57% | 25% | – | –
10 | LKALLKLLKKLLKLKG [1c, alanine scanned first generation peptide] | 0.056 µM | 0.087 µM | 0.092 µM | 1.3 | 0.062 µM | 42% | 10% | – | –
11 | LKKLLKLLKKLLKLAG [1h, alanine scanned first generation peptide] | 0.025 µM | 0.063 µM | 0.053 µM | 0.96 | 0.049 µM | 43% | 9% | – | –
12 | LKKLLKLLKKWLKLAG [2s, tryptophan scanned second generation peptide] | 0.0095 µM | 0.043 µM | 0.024 µM | 5.8 | 0.0044 µM | 60% | 27% | – | –
